Data set [1] is described as follows: Toxicity in Balb/c mouse assessed as death at 20 mg/kg, po once daily for 5 consecutive days starting from day 75 post infection. As to conditions: in vivo. The data set is classed as organism-based.
Data set [2] can be described thus: Cardiotoxicity in Balb/c mouse infected with Trypanosoma cruzi MHOM/Pe/2011/Arequipa DTU 5 trypomastigotes assessed as decrease in serum LDH level at 20 mg/kg, po once daily for 5 consecutive days starting from day 75 post infection measured on day 81 post infection relative to control. On the set-up: scale not given: the % may be the effect or the level left. The data set is classed as toxicity, organism-based. The following applies: in vivo.

A short description of data set [3]: Selectivity index, ratio of IC50 for African green monkey Vero cells to IC50 for Trypanosoma cruzi IRHOD/CO/2008/SN3 DTU 1 trypomastigotes derived from infected Balb/c albino mouse. The following applies: read-out: Ratio IC50. The data set is classed as toxicity.
Data set [4] deals with Trypanosoma cruzi. Kind of data set: Antitrypanosomal activity against Trypanosoma cruzi MHOM/Pe/2011/Arequipa DTU 5 trypomastigotes infected in Balb/c mouse assessed as reduction in Ig-G level in serum at 20 mg/kg, po pretreated once daily for 5 consecutive days starting from day 10 post infection followed by cyclophosphamide-induced immunosuppression on day 100 post infection every 4 days for a maximum of 3 doses measured on day 127 post infection by ELISA. The data set is classed as functional, organism-based. A general note: In an ELISA, binding on a coated surface is turned into a signal by an enzyme label.

Data set [5] has as its system Trypanosoma cruzi. Kind of data set: Trypanocidal activity against Trypanosoma cruzi MHOM/Pe/2011/Arequipa DTU 5 trypomastigotes derived from infected Balb/c albino mouse after 24 hrs by resazurin dye based assay. As to conditions: MHOM/Pe/2011/Arequipa DTU 5, 24 h. The data set is classed as functional, organism-based. In general terms: Resazurin is reduced to fluorescent resorufin, in cell work by metabolically active cells.

The nature of data set [6]: Cardiotoxicity in Balb/c mouse infected with Trypanosoma cruzi MHOM/Pe/2011/Arequipa DTU 5 trypomastigotes assessed as decrease in serum LDH level at 20 mg/kg, po once daily for 5 consecutive days starting from day 75 post infection measured on day 127 post infection relative to control. The data set is classed as toxicity, organism-based. On the set-up: scale not given: the % may be the effect or the level left. The following applies: in vivo.

The subject of data set [7] is Trypanosoma cruzi. Nature of the data set: Trypanocidal activity against Trypanosoma cruzi MHOM/Pe/2011/Arequipa DTU 5 epimastigotes after 48 to 72 hrs by resazurin dye based assay. The data set is classed as functional, organism-based.
Data set [8] deals with Trypanosoma cruzi. Kind of data set: Trypanocidal activity against Trypanosoma cruzi TINF/CH/1956/Tulahuen DTU 6 epimastigotes after 48 to 72 hrs by resazurin dye based assay. The data set is classed as functional, organism-based.
In data set [9] the test system is Trypanosoma cruzi. Kind of data set: Trypanocidal activity against Trypanosoma cruzi IRHOD/CO/2008/SN3 DTU 1 trypomastigotes derived from infected Balb/c albino mouse after 24 hrs by resazurin dye based assay. The data set is classed as functional, organism-based. The following applies: IRHOD/CO/2008/SN3 DTU 1, 24 h.
In data set [10] the test system is Trypanosoma cruzi. Kind of data set: Antitrypanosomal activity against Trypanosoma cruzi MHOM/Pe/2011/Arequipa DTU 5 trypomastigotes infected in Balb/c mouse assessed as parasite-free adipose tissue at 20 mg/kg, po pretreated once daily for 5 consecutive days starting from day 75 post infection followed by cyclophosphamide-induced immunosuppression on day 100 post infection every 4 days for a maximum of 3 doses measured on day 127 post infection by PCR method. The data set is classed as functional.

The test system of data set [11] is Trypanosoma cruzi. Kind of data set: Antitrypanosomal activity against Trypanosoma cruzi MHOM/Pe/2011/Arequipa DTU 5 trypomastigotes infected in Balb/c mouse assessed as reduction in Ig-G level in serum at 20 mg/kg, po once daily for 5 consecutive days starting from day 10 post infection measured on day 16 post infection by ELISA. The data set is classed as functional, organism-based.

Data set [12] in a line: Hepatotoxicity in Balb/c mouse infected with Trypanosoma cruzi MHOM/Pe/2011/Arequipa DTU 5 trypomastigotes assessed as decrease in ratio of serum AST to GOT level at 20 mg/kg, po once daily for 5 consecutive days starting from day 75 post infection measured on day 81 post infection relative to control. The data set is classed as toxicity, organism-based. On the set-up: scale not given: the % may be the effect or the level left. As to conditions: in vivo.

Data set [13] is described as follows: Nephrotoxicity in Balb/c mouse infected with Trypanosoma cruzi MHOM/Pe/2011/Arequipa DTU 5 trypomastigotes assessed as decrease in serum uric acid level at 20 mg/kg, po once daily for 5 consecutive days starting from day 75 post infection measured on day 127 post infection relative to control. The data set is classed as toxicity, organism-based. The arrangement: scale not given: the % may be the effect or the level left. The following applies: in vivo.

Data set [14] can be described thus: Hepatotoxicity in Balb/c mouse infected with Trypanosoma cruzi MHOM/Pe/2011/Arequipa DTU 5 trypomastigotes assessed as change in ratio of serum ALT to GPT level at 20 mg/kg, po once daily for 5 consecutive days starting from day 10 post infection measured on day 127 post infection by biochemical analysis (reference value: 49 U/L). As to conditions: in vivo. The data set is classed as toxicity, organism-based.

Data set [15] can be described thus: Selectivity index, ratio of IC50 for African green monkey Vero cells to IC50 for Trypanosoma cruzi MHOM/Pe/2011/Arequipa DTU 5 trypomastigotes derived from infected Balb/c albino mouse. The following applies: read-out: Ratio IC50. The data set is classed as toxicity.
The nature of data set [16]: Selectivity index, ratio of IC50 for African green monkey Vero cells to IC50 for Trypanosoma cruzi IRHOD/CO/2008/SN3 DTU 1 amastigotes infected in African green monkey Vero cells. The data set is classed as toxicity. The following applies: read-out: Ratio IC50.
The test system of data set [17] is Trypanosoma cruzi. Nature of the data set: Antitrypanosomal activity against Trypanosoma cruzi MHOM/Pe/2011/Arequipa DTU 5 trypomastigotes infected in Balb/c mouse assessed as reduction in Ig-G level in serum at 20 mg/kg, po once daily for 5 consecutive days starting from day 10 post infection measured on day 100 post infection by ELISA. The data set is classed as functional, organism-based.

Data set [18] can be described thus: Selectivity index, ratio of IC50 for African green monkey Vero cells to IC50 for Trypanosoma cruzi TINF/CH/1956/Tulahuen DTU 6 trypomastigotes derived from infected Balb/c albino mouse. The following applies: read-out: Ratio IC50. The data set is classed as toxicity.
Data set [19] deals with Trypanosoma cruzi. Nature of the data set: Trypanocidal activity against Trypanosoma cruzi IRHOD/CO/2008/SN3 DTU 1 epimastigotes after 48 to 72 hrs by resazurin dye based assay. The data set is classed as functional, organism-based.
Data set [20] can be described thus: Selectivity index, ratio of IC50 for African green monkey Vero cells to IC50 for Trypanosoma cruzi TINF/CH/1956/Tulahuen DTU 6 epimastigotes. The data set is classed as toxicity. As to conditions: read-out: Ratio IC50.
Data set [21] can be described thus: Selectivity index, ratio of IC50 for African green monkey Vero cells to IC50 for Trypanosoma cruzi IRHOD/CO/2008/SN3 DTU 1 epimastigotes. The data set is classed as toxicity. As to conditions: read-out: Ratio IC50.
The nature of data set [22]: Hepatotoxicity in Balb/c mouse infected with Trypanosoma cruzi MHOM/Pe/2011/Arequipa DTU 5 trypomastigotes assessed as increase in serum ALT to GPT level at 20 mg/kg, po once daily for 5 consecutive days starting from day 10 post infection measured on day 16 post infection relative to control. The data set is classed as toxicity, organism-based. As to conditions: in vivo.

A short description of data set [23]: Hepatotoxicity in Balb/c mouse infected with Trypanosoma cruzi MHOM/Pe/2011/Arequipa DTU 5 trypomastigotes assessed as increase in total bilirubin level at 20 mg/kg, po once daily for 5 consecutive days starting from day 75 post infection measured on day 81 post infection relative to control. The data set is classed as toxicity, organism-based. The following applies: in vivo.

The nature of data set [24]: Cardiotoxicity in Balb/c mouse infected with Trypanosoma cruzi MHOM/Pe/2011/Arequipa DTU 5 trypomastigotes assessed as change in serum LDH level at 20 mg/kg, po once daily for 5 consecutive days starting from day 10 post infection measured on day 16 post infection by biochemical analysis (reference value: 3275 U/L). The following applies: in vivo. The data set is classed as toxicity, organism-based.

A short description of data set [25]: Hepatotoxicity in Balb/c mouse infected with Trypanosoma cruzi MHOM/Pe/2011/Arequipa DTU 5 trypomastigotes assessed as increase in alkaline phosphatase level at 20 mg/kg, po once daily for 5 consecutive days starting from day 75 post infection measured on day 81 post infection relative to control. The data set is classed as toxicity, organism-based. As to conditions: in vivo.

The nature of data set [26]: Hepatotoxicity in Balb/c mouse infected with Trypanosoma cruzi MHOM/Pe/2011/Arequipa DTU 5 trypomastigotes assessed as increase in total bilirubin level at 20 mg/kg, po once daily for 5 consecutive days starting from day 75 post infection measured on day 127 post infection relative to control. The data set is classed as toxicity, organism-based. The following applies: in vivo.

Activity calls are given as the source filed them. The calls are words filed in the database; no cut-off is given here. Where only a bound is given, the exact number is not on record here.

As usually defined, the IC50 is the concentration that inhibits the measured activity by half. As to `Cl.Cl.Cl.NCCN(CCN)CCNCc1ccc2c(c1)Cc1ccccc1-2`, the Activity result in [1] is “Non-Toxic”; in data set [2], “<= 10%”; in data set [6], “<= 10%”; with Trypanosoma cruzi [10], 16.3%; in data set [12], “<= 10%”; in data set [13], “<= 10%”. Besides, in data set [14], the Activity was 49 U/L. The selectivity ratio stood at 142 in [3]; 120 in data set [15]; 89.6 in data set [16]; 100 in data set [18]; 57.5 in [20]; 91.3 in [21]. Besides, the result in the data set with Trypanosoma cruzi [4], with Trypanosoma cruzi [11] and in the data set with Trypanosoma cruzi [17] was Active. Further, the IC50 in the data set on Trypanosoma cruzi [5] is 14.7 µM; in the data set with Trypanosoma cruzi [7], 26.6 µM; in the data set on Trypanosoma cruzi [8], 30.7 µM; in the data set on Trypanosoma cruzi [9], 12.4 µM; in the data set on Trypanosoma cruzi [19] it was 19.3 µM.

`O=C(Cn1ccnc1[N+](=O)[O-])NCc1ccccc1` [BENZNIDAZOLE]: the Activity entry in [2] was “<= 10%”; in data set [6], “<= 10%”; in [22] it was greater than 40%; in data set [23] it was “<= 30%”; in data set [24], 3275 U/L; in the data set with Trypanosoma cruzi [10], 51.2%. For the same compound, the Activity entry in data set [13] is listed as “<= 10%”; in [14], 49 U/L; in data set [25], greater than 40%; in data set [26], “<= 20%”.

Regarding `Cl.Cl.Cl.Cl.Cl.Cl.c1ccc2nc(CNCCN(CCNCc3ccc4ccccc4n3)CCNCc3ccc4ccccc4n3)ccc2c1`, the Activity result in [1] is reported as “Non-Toxic”; in data set [22], greater than 40%; in data set [23], “<= 30%”; in [24] it was 3275 U/L; in [12], “<= 10%”; in [25] it was “<= 20%”. The selectivity ratio in data set [3] stood at 1560; in data set [15] it was 1360; in data set [16], 1020; in [18], 890; in [20], 84.8; in [21], 112. The outcome with Trypanosoma cruzi [4], in the data set with Trypanosoma cruzi [11] and in the data set on Trypanosoma cruzi [17] was inactive. The IC50 worked out at 1.2 µM in the data set with Trypanosoma cruzi [5]; 15.1 µM in the data set with Trypanosoma cruzi [7]; 19.5 µM with Trypanosoma cruzi [8]; 1.1 µM with Trypanosoma cruzi [9]; 14 µM in the data set on Trypanosoma cruzi [19].

(Values after ChEMBL document CHEMBL4411300 (Eur J Med Chem, 2019).)
